{"source": "patent US11311625B2", "about": "“Peptide-based multiple-drug delivery vehicle” (priority 2015, dated 2022)", "key": {"[1]": {"experiment": "Chemo-stability and drug release of conjugates 1a-e in buffers at pH 2, 5 and 7.4 (LC-MS)", "type": "physicochemical", "conditions": "for half-life at 0.4 mg/ml: buffer", "protocol": "Incubation procedure: Aqueous stability was determined at pH 2.0 (phosphate buffer), 5.0 (citrate buffer) and 7.4 (PBS buffer). 100 μl of the stock solutions were diluted to 2.5 ml with the desired buffer and then incubated at 37° C. During the incubation period (up to 200 hrs.), aliquots were removed at different time intervals, filtered and analyzed by LC-MS.\nChemo-stability. The chemo-stability tests of the conjugates were performed at three different pH values; a physiological pH of 7.4, the slightly acidic pH 5, mimicking the microenvironment in tumors, and the more acidic pH 2.\nFIGS. 11A-11J present the results of the chemo-stability and drug release profiles assays, conducted for conjugates 1a-e at pH 2, 5 and 7.4. Degradation of 1a (FIG. 11A), 1b (FIG. 11C), 1c (FIG. 11E), 1d (FIG. 11G), 1e FIG. 11 (FIG. 11I), and the release of the corresponding drugs: CLB (FIG. 11B), CPT (FIG. 11D), AM (FIG. 11F), ABT-751 (FIG. 11H), and COMB (FIG. 11J). Stock solutions were prepared by dissolving 5 mg of the measured conjugate in 0.5 ml DMSO. 100 μl of the stock solution were diluted to 2.5 ml with the relevant buffer and then incubated at 37° C. Along the incubation period, aliquots were taken at the desired time points and analyzed by LC-MS."}, "[2]": {"system": "HCT 116, H1299, TRAMP C2 and HEK cell lines", "experiment": "XTT growth inhibition assay, statements over all tested cell lines", "type": "cell-based, human", "conditions": "1-10 μM, 24 and 72 h", "protocol": "(§1) The cytotoxicity of the peptide-drug conjugates was determined by measuring the mitochondrial enzyme activity, using a commercial XTT assay kit. All samples contained DMSO at final concentration <0.05%. Cells were cultured in micro wells at 2-4×10^4 cells/ml and incubated for 24 h or 72 h. After the first incubation period the cultures were washed and then given fresh medium containing different concentrations of the tested substances. At the end of the second incubation, XTT reagent was added and the cells were re-incubated for additional 2-4 h. During that time the absorbencies in the wells were measured with a TECAN Infinite M200 plate reader at both 480 and 680 nm. The difference between these measurements was used for calculating the % Growth Inhibition (GI) in test wells compared to two controls: cells that were exposed to the medium and solvent, and those that were exposed to a solvent-free medium. All the tests were done in quadruplicates. Each experiment was conducted twice.\nIn order to compare the cytotoxic effects of the conjugates relative to the free drugs, the in vitro cytotoxic effect of the drug bioconjugates 1a-e was determined on SSTR2 overexpressed HCT 116 human colorectal carcinoma, H1299 human non-small cell lung carcinoma and TRAMP C2 human prostate cancer cell lines. The SSTR2 low-expressed HEK-293 (Human Embryonic Kidney 293) cell line was used as a negative control. The study was elaborated over a concentration range of 1-10 μM.\nFIGS. 13A-13D present the results of the XTT growth inhibition assay conducted for conjugates 1a-e. Growth inhibition effect of drug-conjugates versus free drugs was studied on three cell lines with an over-expression of SSTR2 (FIG. 13A. HCT 116; FIG. 13B. H1299; FIG. 13C. TRAMP C2) against the SSTR2 low expression cell line (FIG. 13D) HEK as negative control. All the cell lines were seeded and allowed to adhere in the wells, after which they were treated with the different compounds in increasing concentrations for 24 and 72 hr. After the treatment, growth inhibition was measured using the XTT assay: The culture medium was replaced by a new one, and then the XTT reagent was added. The wells were incubated for 2-4 hrs. after which the optical density (OD) was measured at 480 and 680 nm. Percentage of growth inhibition for each compound was calculated by comparison of the treated culture versus a control culture (free of any compound). The result shown for each concentration point represents the mean±standard error calculated from two different experiments. In each experiment the compounds were tested in quadruplicates."}, "[3]": {"experiment": "Chemo-stability and drug release of 9a and CLB in buffers at pH 2, 5 and 7.4 (LC-MS)", "type": "physicochemical", "protocol": "Stock solutions chemo-stability studies were prepared by dissolving 5 mg of the tested compound in 5000 μl of DMSO.\nIncubation procedure: Aqueous stability was determined at pH 2, 5 and 7.4. Aliquots (100 μl) of stock solution were diluted to a total of 2.5 mL with the desired buffer and then incubated at 37° C. During the incubation period (up to 160 h) 250 μL portions were drawn at different time intervals, filtered and analyzed by LC-MS.\nPeptidyl delivery systems loaded with anticancer drugs are expected to reach their site of action with minimal degradation. The PDS should be stable enough to be absorbed by cancer cells and only then deliver its toxic cargo. Chemo-stability and bio-stability studies may give us a background check for the endurance of our compact peptidyl DDS under the different conditions it is expected to encounter in a potential animal test. To that end, samples of 9a were incubated at pH 2, mimicking stomach conditions, at pH 5 mimicking the microenvironment in tumors, and at physiological pH 7.4, all at 37° C. Aliquots from the stock solutions were extracted at different time intervals and analyzed by LC-MS following the decrease in concentration of 9a (i.e., chemical degradation) and the formation of the dihydroxy derivative 11. In addition, the direct release of the different drugs was also followed based on the increase in the concentration of CLB, AZA and CAMP over time. In this analysis samples of 9a, 11, CLB, AZA and CAMP were used as references. Overall, the HPLC trace presents a very complex mixture of metabolites which could not be exhaustively characterized. Scheme 9 below presented the molecular structure 11."}, "[4]": {"experiment": "Bio-stability and drug release of conjugates 1a-e in murine liver homogenate (LH)", "type": "in vitro ADME, mouse", "conditions": "mouse, tissue homogenate, pH 7.4, 37° C., read-out: degradation t1/2 in liver homogenate", "protocol": "(§2) Preparation of liver homogenate: Mice were sacrificed by CO2 inhalation euthanasia. The livers were removed, minced, washed three times in cold PBS buffer and homogenized in Tris-HCl buffer, pH 7.4 (wt/3 vol.) by dozen strokes in a Potter-Elvehjem glass tissue grinder. The tissue homogenate was centrifuged at 4° C., 14000 rpm, 20 min. The supernatant was carefully collected (liver homogenate) and used immediately or else stored in liquid nitrogen.\nIncubation procedure: Incubations were conducted in a 37° C. incubator with 2 ml homogenate (equivalent to 6 mg total protein of mouse liver homogenate) per incubation tube. The samples were prepared by adding 50 μl of stock solution to the homogenate (homogenate mixture) at the beginning of the incubation period. Aliquots of the homogenate mixture were removed after 10, 30, 60, 90, 120 and 180 min and then immediately quenched with 2.5 volumes of ethanol. The samples were centrifuged at 14000 rpm for 15 min. Supernatants were collected, filtered and analyzed by LC-MS.\nFIGS. 12A-12E present the results of the bio-stability and drug release profiles assays conducted for conjugates 1a-e in LH. […] Stock solutions were prepared by dissolving 5 mg of the measured conjugate in 0.5 ml DMSO. 50 μl of the stock solution were diluted with 2 ml of fresh mouse liver homogenate and then the mixture was incubated at 37° C. Aliquots were collected at 10, 30, 60, 90 and 120 min, mixed with 2.5 volumes of ethanol and centrifuged (14,000 rpm, 15 min). The supernatants were collected, filtered and analyzed by LC-MS"}, "[5]": {"system": "TRAMP C2 prostate cancer cell lines", "experiment": "XTT growth inhibition assay, TRAMP C2", "type": "cell-based, human", "conditions": "compared with corresponding free drugs", "protocol": "as §1, with “The difference between these measurements was used for calculating the % Growth Inhibition (GI) in test wells compared to two controls: cells that were exposed to the medium and solvent, and those that were exposed to a solvent-free medium. All the tests were done in quadruplicates. Each experiment was conducted twice.” left out\nIn order to compare the cytotoxic effects of the conjugates relative to the free drugs, the in vitro cytotoxic effect of the drug bioconjugates 1a-e was determined on SSTR2 overexpressed HCT 116 human colorectal carcinoma, H1299 human non-small cell lung carcinoma and TRAMP C2 human prostate cancer cell lines. […]\nFIGS. 13A-13D present the results of the XTT growth inhibition assay conducted for conjugates 1a-e. […] After the treatment, growth inhibition was measured using the XTT assay: The culture medium was replaced by a new one, and then the XTT reagent was added. The wells were incubated for 2-4 hrs. after which the optical density (OD) was measured at 480 and 680 nm. […]"}, "[6]": {"experiment": "Bio-stability of 9a in murine liver homogenate (LH)", "type": "in vitro ADME, mouse", "protocol": "as §2, with “the LH and assay:” for “liver homogenate:”, “Tris-HCl,” for “Tris-HCl buffer,”, “7.4 buffer” for “7.4”, “(LH)” for “(liver homogenate)”, “nitrogen. The concentration of protein was measured using the BCA protein assay with bovine serum albumin as a standard.” for “nitrogen.”\nAssay incubation procedure: Incubations were conducted in an incubator oven set at 37° C. Each incubation tube contained 2 mL homogenate samples (equivalent to 6 mg total protein of mouse LH). The samples were prepared by adding 50 μL of stock solution to the LH at the beginning of the incubation period. Aliquots (100 μL) of the LH mixture were removed after 10, 30, 60, 90, 120, and 180 min. immediately quenched with 2.5 volumes of ethanol, and centrifuged at 14000 rpm for 15 min. The supernatants were collected, filtered and analyzed by LC-MS.\nIn order to get a biologically relevant picture of the release sequence of the different drugs, the bio-stability of 9a in murine liver homogenate (LH) was studied. Examination of the degradation rate of 9a, accompanied by cleavage of free drugs, was carried out following the LC-MS trace at different time intervals using premade authentic samples as reference signals."}}, "note": "Read-outs that look alike come from different tables or passages of the source."}
{"compound": "CN(C)CCN1C(=O)c2cccc3cc(N)cc(c23)C1=O", "note": "[amonafide, reference compound]", "values": [{"measurement": "stability of free drug", "setting": "[1]; acidic pH 2", "result": "relatively low stability"}, {"measurement": "cytotoxicity throughout the study", "setting": "[2]", "result": "poorly active"}]}
{"compound": "O=C(O)CCCc1ccc(N(CCCl)CCCl)cc1", "note": "[CLB, Chlorambucil, reference compound]", "values": [{"measurement": "degradation of pure CLB", "setting": "[3]; all tested pH values (2, 5, 7.4), 37° C.", "result": "considerable degradation"}, {"measurement": "relative stability of CLB", "setting": "[3]; pH 5", "result": "least stable"}, {"measurement": "cytotoxicity throughout the study", "setting": "[2]", "result": "poorly active"}]}
{"compound": "C[C@@H](O)[C@@H]1NC(=O)[C@H](CCCCN)NC(=O)[C@@H](Cc2c[nH]c3ccccc23)NC(=O)[C@H](Cc2c[nH]c3ccccc23)NC(=O)[C@H](Cc2ccccc2)NC(=O)[C@@H](NC(=O)[C@@H](Cc2ccccc2)NC(=O)CCCNC(=O)CCCC(=O)Nc2cc3c4c(cccc4c2)C(=O)N(CCN(C)C)C3=O)CSSCCN(CC(N)=O)C(=O)[C@H](Cc2ccccc2)NC1=O", "note": "[conjugate 1c]", "values": [{"measurement": "half-life at 0.4 mg/ml", "setting": "[1]; pH 2", "result": 2880, "unit": "min"}, {"measurement": "half-life at 0.4 mg/ml", "setting": "[1]; pH 5", "result": 1680, "unit": "min"}, {"measurement": "half-life at 0.4 mg/ml", "setting": "[1]; pH 7.4", "result": 6180, "unit": "min"}]}
{"compound": "COc1ccc(/C=C\\c2cc(OC)c(OC)c(OC)c2)cc1OC(=O)NCCCC(=O)N[C@H](Cc1ccccc1)C(=O)N[C@H]1CSSCCN(CC(N)=O)C(=O)[C@H](Cc2ccccc2)NC(=O)[C@H]([C@@H](C)O)NC(=O)[C@H](CCCCN)NC(=O)[C@@H](Cc2c[nH]c3ccccc23)NC(=O)[C@H](Cc2c[nH]c3ccccc23)NC(=O)[C@H](Cc2ccccc2)NC1=O", "note": "[conjugate 1e]", "values": [{"measurement": "degradation of conjugate in acidic media", "setting": "[1]; acidic media, especially pH 2", "result": "degrades rapidly"}, {"measurement": "half-life at 0.4 mg/ml", "setting": "[1]; pH 2, 37° C., read-out: degradation t1/2", "result": 4, "unit": "min"}, {"measurement": "half-life at 0.244 mg/ml", "setting": "[4]", "result": 26, "unit": "min"}, {"measurement": "cytotoxic effect on TRAMP C2", "setting": "[5]", "result": "most potent targeted therapeutic effect"}, {"measurement": "cytotoxicity throughout the study", "setting": "[2]", "result": "targeted but cell selective cytotoxicity"}]}
{"compound": "COc1cc([C@@H]2c3[nH]c4ccccc4c3C[C@H]3COC(=O)N32)cc(OC)c1OC(=O)N[C@@H](C)C(=O)O", "note": "[compound 12]", "values": [{"measurement": "time the carbamate link remains intact in LH", "setting": "[6]", "result": "at least 120 min"}]}
